Reference: patent publication US11576884B2, “Amino acid compositions and uses thereof” (University of Florida Research Foundation, Incorporated, priority 2016, dated 2023)

System: Lgr5
Test: Western blot for Lgr5 protein
Format: in vivo, NIH Swiss mice
Settings: individual amino acid by gastric gavage (300 ul OD) for 6 days; 0 Gy and 5 Gy irradiated mice
Experimental: For FIGS. 9-13, the data is from Male NIH Swiss mice (8 weeks) treated with individual amino acids (FIG. 9 (valine); FIG. 10 (tryptophan); FIG. 11 (serine); FIG. 12 (tyrosine); FIG. 13 (threonine)), as by gastric savage (300 ul OD) for a period of 6 days. Animals were sacrificed on day 6 by CO2 euthanasia and tissues collected for resolving the protein by western blot analysis. Lgr5 (100 KD) was used as the marker for crypt stem cell proliferation. These experiments are repeated at least 4 times (data shown) from 4 different mice.
Control groups were given normal saline. […] Mice fasted for 8 hours prior to gavage.
Signals were detected with Odyssey CLX from LI-COR.

SMILES: CC(C)[C@H](N)C(=O)O [valine]
- Lgr5 protein levels: increases
